Assay results from patent US20220119355A1, “SATURATED-RING-FUSED DIHYDROPYRIMIDINONE OR DIHYDROTRIAZINONE COMPOUNDS AND PHARMACEUTICAL USE THEREOF” (Japan Tobacco Inc., priority 2018, published 2022).

Assays:
Type in all cases: cell-based
mouse RORγ [1] = biological target: T1, mouse RORγ (Mus musculus, UniProt P51450); assay: In-vitro reporter gene assay for inhibitory activity against RORγ transcription, Test Method B (pFA/mRORγ LBD / pG5-Luc in CHO cells); details: luciferase reporter, CHO cells, 2 days
T1 construct: from Ile251 to Lys516 for mouse RORγ; expressed in transfected cells; host or cells: CHO cells (transient co-transfection with pG5-Luc)
T1 sequence (P51450 251-516): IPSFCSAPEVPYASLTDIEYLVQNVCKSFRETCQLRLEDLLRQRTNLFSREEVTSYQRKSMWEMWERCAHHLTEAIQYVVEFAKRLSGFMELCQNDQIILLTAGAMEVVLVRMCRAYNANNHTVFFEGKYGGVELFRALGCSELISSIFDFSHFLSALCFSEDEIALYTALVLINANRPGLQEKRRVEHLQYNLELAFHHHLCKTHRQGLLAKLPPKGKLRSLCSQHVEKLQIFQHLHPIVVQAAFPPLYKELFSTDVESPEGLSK
Procedure: (§1) In-Vitro Assay for Inhibitory Activity Against RORγ Transcription
(§2) Inhibitory activity against RORγ transcription was assessed for test compounds by either of the following Test Method A or B of reporter gene assay.
(§3) cDNAs encoding human and mouse RORγ ligand binding domains (LBD) were obtained based on the sequences of human RORγ (Genbank registered number NM_005060.3) and mouse RORγ (Genbank registered number NM_011281.2) (LBD sequences: from Ser253 to Lys518 for human RORγ; from Ile251 to Lys516 for mouse RORγ).
(§4) LBD cDNAs of human and mouse RORγ were inserted into pFA-CMV vector (Agilent Technologies, Inc.), which expresses GAL4-DNA binding domain fusion protein. The resulting plasmids are hereinafter referred to as pFA/hRORγ plasmid and pFA/mRORγ plasmid, respectively.
(§5) pFA/hRORγ plasmid or pFA/mRORγ plasmid was transiently co-transfected into Chinese hamster ovary cells (CHO cells) with pG5-Luc (Promega), reporter plasmid expressing firefly luciferase in a GAL4-dependent manner.
(§6) TransIT (Registered trademark) CHO Transfection Kit (Mirus) was used to co-transfect CHO cells with the plasmids. One day prior to the assay, CHO cells were suspended in HAM F-12 Nutrient medium containing 10% (v/v) fetal bovine serum and seeded at 5.5×10^6 cells per 225 cm^2 cell culture flask each. 72 μL of TransIT (Registered trademark) CHO reagent was added into a 2 mL tube containing 1.55 mL of Opti-MEM, and then mixed and incubated at room temperature for 10 minutes. 50.4 μL of a plasmid solution containing 300 ng of pFA/hRORγ plasmid, 12000 ng of pG5-Luc plasmid, and 11700 ng of pcDNA3.1 plasmid were added into the tube and mixed gently. In the case of mouse assay, a plasmid solution containing 300 ng of pFA/mRORγ plasmid, 12000 ng of pG5-Luc plasmid, and 11700 ng of pcDNA3.1 plasmid was added, instead. The mixture was incubated at room temperature for 10 minutes. 12 μL each of CHO Mojo Reagent were then added into each tube and mixed gently. The mixture was incubated at room temperature for 10 minutes. The resulting transfection reagent was applied to the cell culture. After incubation at 37° C., 5% CO2 for 4 hours, the plasmid-transfected CHO cells were harvested by trypsin treatment. The collected cells were resuspended in culture medium and plated into a 384-well-white plate at 8,000 cells/35 μL/well. The plate was let stand at room temperature for 1 hour and then further incubated at 37° C., 5% CO2 for 3 hours. A test compound was dissolved in dimethyl sulfoxide (DMSO) to obtain a concentration of 10 mM. Each solution was serially diluted with DMSO and further diluted with culture medium just before use. The test compound solutions were added to the cells in the plate at 6 different concentrations. The final concentration of DMSO was 0.2% (v/v). After the addition of test compound, the cells were incubated at 37° C., 5% CO2 for 2 days.
(§7) RORγ transcriptional activity was detected as the intracellular luciferase activity using SteadyLite HTS Reporter Gene Assay System (Perkin Elmer). SteadyLite Reagent was diluted 2.5-fold with Extension buffer (10 mM Tricine, 0.2% (w/v) bovine serum albumin, 0.02% (v/v) Tween-20) to obtain a luciferase substrate solution. Two days after the addition of test compound, 40 μL each of the luciferase substrate solution was added into the 384-well-plate. After the incubation at room temperature for 10 minutes, luminescence of each well was measured with a microplate reader. The luciferase activity derived from the luminescence count in a vehicle-control well treated with 0.2% DMSO alone was defined as 100%, and the luciferase activity after treatment of the test compound was calculated as a percentage, %-of-control, based on the value of the vehicle-control. An EC50 value of the test compound was calculated by curve fitting. The luminescence counts at the concentration of test compound where cytotoxicity was observed were excluded from data analysis. […]

human RORγ [2] = biological target: T2, human RORγ (Homo sapiens, UniProt P51449); assay: In-vitro reporter gene assay for inhibitory activity against RORγ transcription, Test Method B (pFA/hRORγ LBD / pG5-Luc in CHO cells); details: luciferase reporter, CHO cells, 2 days
T2 construct: from Ser253 to Lys518 for human RORγ; expressed in transfected cells; host or cells: CHO cells (transient co-transfection with pG5-Luc)
T2 sequence (P51449 253-518): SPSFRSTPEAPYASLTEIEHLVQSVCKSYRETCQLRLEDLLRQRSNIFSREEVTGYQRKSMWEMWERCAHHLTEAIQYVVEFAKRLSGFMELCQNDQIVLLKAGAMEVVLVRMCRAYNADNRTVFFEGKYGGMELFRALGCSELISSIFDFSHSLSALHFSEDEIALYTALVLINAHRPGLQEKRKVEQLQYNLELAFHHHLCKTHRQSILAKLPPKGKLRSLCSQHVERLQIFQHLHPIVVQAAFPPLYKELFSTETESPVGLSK
Procedure: as §1, §2, §3, §4, §5, §6, §7

human RORγ [3] = biological target: T2, human RORγ; assay: In-vitro reporter gene assay for inhibitory activity against RORγ transcription, Test Method A (GAL4-hRORγ LBD / pG5-Luc in CHO cells); details: luciferase reporter, 2 days
Procedure: as §1, §2, §3
(§8) LBD cDNAs of human and mouse RORγ were inserted into pFA-CMV vector (Stratagene), which expresses GAL4-DNA binding domain fusion protein. The resulting plasmids are hereinafter referred to as GAL4-hRORγ plasmid and GAL4-mRORγ plasmid, respectively.
(§9) GAL4-hRORγ plasmid or GAL4-mRORγ plasmid was transiently co-transfected into Chinese hamster ovary cells (CHO cells) with pG5-Luc (Promega), reporter plasmid expressing firefly luciferase in a GAL4-dependent manner.
(§10) TransIT (Registered trademark) CHO Transfection Kit (Mirus) was used to co-transfect CHO cells with the plasmids. One day prior to the assay, CHO cells were suspended in HAM F-12 Nutrient medium containing 10% (v/v) fetal bovine serum and seeded at 6×10^6 cells per 175 cm^2 cell culture flask each. 54 μL of TransIT (Registered trademark) CHO reagent was added into a 15 mL tube containing 1.16 mL of HAM F-12 Nutrient medium without fetal bovine serum, and then mixed and incubated at room temperature for 10 minutes. 36 μL of a plasmid solution containing 400 ng of GAL4-hRORγ plasmid, 9000 ng of pG5-Luc plasmid, and 8600 ng of pcDNA3 plasmid were added into the tube and mixed gently. In the case of mouse assay, a plasmid solution containing 250 ng of GAL4-mRORγ plasmid, 9000 ng of pG5-Luc plasmid, and 8750 ng of pcDNA3 plasmid was added, instead. The mixture was incubated at room temperature for 10 minutes. 9 μL each of CHO Mojo Reagent were then added into each tube and mixed gently. The mixture was incubated at room temperature for 10 minutes. The resulting transfection reagent was applied to the cell culture. After incubation at 37° C., 5% CO2 for 4 hours, the plasmid-transfected CHO cells were harvested by trypsin treatment. The collected cells were resuspended in culture medium and plated into a 384-well-white plate at 8,000 cells/50 μL/well. The plate was let stand at room temperature for 1 hour and then further incubated at 37° C., 5% CO2 for 3 hours. A test compound was dissolved in DMSO to obtain a concentration of 10 mM. Each solution was serially diluted with DMSO and further diluted with culture medium just before use. The test compound solutions were added. to the cells in the plate at 8 different concentrations. The final concentration of DMSO was 0.2% (v/v). After the addition of test compound, the cells were incubated at […], 5% CO2 for 2 days.
(§11) RORγ transcriptional activity was detected as the intracellular luciferase activity using SteadyLite HTS Reporter Gene Assay System (Perkin Elmer). SteadyLite Reagent was diluted five-fold with Extension buffer (10 mM Tricine, 0.2% (w/v) bovine serum albumin, 0.02% (v/v) Tween-20) to obtain a luciferase substrate solution. After the measurement of the cell viability with Resazurin, the medium was removed in the plate and the luciferase substrate solution was added thereto. After the incubation at room temperature for 10 minutes, luminescence of each well was measured with a microplate reader. The luciferase activity derived from the luminescence count in a vehicle-control well treated with 0.2% DMSO alone was defined as 100%, and the luciferase activity after treatment with the test compound was calculated as a percentage, %-of-control, based on the value of the vehicle-control. An EC50 value of the test compound was calculated by curve fitting with GraphPad Prism. The luminescence counts at the concentration of test compound where cytotoxicity was observed were excluded from data analysis. […]

mouse RORγ [4] = biological target: T1, mouse RORγ; assay: In-vitro reporter gene assay for inhibitory activity against RORγ transcription, Test Method A (GAL4-mRORγ LBD / pG5-Luc in CHO cells); details: luciferase reporter, 2 days
Procedure: as §1, §2, §3, §8, §9, §10, §11

Row | EC50 (mouse RORγ [1]) | EC50 (human RORγ [2]) | EC50 (human RORγ [3]) | EC50 (mouse RORγ [4]) | SMILES
1 | 0.169 µM | 0.751 µM |  |  | CC1(C)CC1COc1ccc(C23CCCCC2=CN(CCC(=O)O)C(=O)N3)cc1Cl (racemic) [Example 88]
2 | 0.455 µM | 2.34 µM |  |  | O=C(O)CCN1C=C2CCCCC2(c2ccc(OC3CCCCC3)c(Cl)c2)NC1=O (racemic) [Example 95]
3 |  |  | 0.015 µM | 0.027 µM | CC1CCC2(c3ccc(CCC(C)(C)C)c(Cl)c3)NC(=O)N(CCC(=O)O)C=C2C1 (single isomer, unassigned) [Example 69]
4 |  |  | 0.541 µM | 0.516 µM | C[C@H]1CC2=CN(CCC(=O)O)C(=O)NC2(c2ccc(CCC(C)(C)C)c(Cl)c2)CO1 (single isomer, unassigned) [Example 70]
5 |  |  | 0.01 µM | 0.007 µM | C[C@@H]1CC2=CN(CCC(=O)O)C(=O)NC2(c2ccc(CCC(C)(C)C)c(Cl)c2)CO1 (single isomer, unassigned) [Example 71]
6 |  |  | 0.028 µM | 0.015 µM | C[C@@H]1CC2=CN(C34CC(C(=O)O)(C3)C4)C(=O)NC2(c2ccc(CCC(C)(C)C)c(Cl)c2)CO1 (single isomer, unassigned) [Example 72]
7 |  |  | 0.061 µM | 0.038 µM | CC(C)(C)CCc1ccc(C23CCC(C(F)(F)F)CC2=CN(C24CC(C(=O)O)(C2)C4)C(=O)N3)cc1Cl (single isomer, unassigned) [Example 75]
8 |  |  | 2.41 µM | 3.03 µM | COC1CC[C@]2(c3ccc(CCC(C)(C)C)c(Cl)c3)NC(=O)N(C34CC(C(=O)O)(C3)C4)C=C2C1 (single isomer, unassigned) [Example 76]
9 |  |  | 0.024 µM | 0.031 µM | COC1CC[C@@]2(c3ccc(CCC(C)(C)C)c(Cl)c3)NC(=O)N(C34CC(C(=O)O)(C3)C4)C=C2C1 (single isomer, unassigned) [Example 77]
10 |  |  | 2.2 µM | > 3.2 µM | CC1CCC[C@]2(c3ccc(CCC(C)(C)C)c(Cl)c3)NC(=O)N(C34CC(C(=O)O)(C3)C4)C=C12 (single isomer, unassigned) [Example 78]
11 |  |  | 0.018 µM | 0.022 µM | CC1CCC[C@@]2(c3ccc(CCC(C)(C)C)c(Cl)c3)NC(=O)N(C34CC(C(=O)O)(C3)C4)C=C12 (single isomer, unassigned) [Example 79]
12 |  |  | > 10 µM | > 10 µM | CC1CC[C@]2(c3ccc(CCC(C)(C)C)c(Cl)c3)NC(=O)N(CCC(=O)O)C=C2C1 (single isomer, unassigned) [Example 80]
13 |  |  | 0.013 µM | 0.019 µM | CC1CC[C@@]2(c3ccc(CCC(C)(C)C)c(Cl)c3)NC(=O)N(CCC(=O)O)C=C2C1 (single isomer, unassigned) [Example 81]
14 |  |  | 9.87 µM | 9.79 µM | CC(C)(C)CCc1ccc([C@]23CCC(C)(C)CC2=CN(CCC(=O)O)C(=O)N3)cc1Cl (single isomer, unassigned) [Example 82]
15 |  |  | 0.014 µM | 0.018 µM | CC(C)(C)CCc1ccc([C@@]23CCC(C)(C)CC2=CN(CCC(=O)O)C(=O)N3)cc1Cl (single isomer, unassigned) [Example 83]
16 |  |  | > 10 µM | > 10 µM | COCC1CC[C@]2(c3ccc(CCC(C)(C)C)c(Cl)c3)NC(=O)N(C34CC(C(=O)O)(C3)C4)C=C2C1 (single isomer, unassigned) [Example 84]
17 |  |  | 0.033 µM | 0.073 µM | COCC1CC[C@@]2(c3ccc(CCC(C)(C)C)c(Cl)c3)NC(=O)N(C34CC(C(=O)O)(C3)C4)C=C2C1 (single isomer, unassigned) [Example 85]
18 |  |  | > 3.2 µM | 2.73 µM | CC(C)(C)CCc1ccc([C@]23CCCCC2=CN(C24CC(C(=O)O)(C2)C4)C(=O)N3)cc1Cl [Example 53]
19 |  |  | 0.064 µM | 0.035 µM | CC(C)(C)CCc1ccc([C@@]23CCCCC2=CN(C24CC(C(=O)O)(C2)C4)C(=O)N3)cc1Cl [Example 54, 3-{(S)-8a-[3-Chloro-4-(3,3-dimethyl-butyl)phenyl]-2-oxo-1,5,6,7,8,8a-hexahydro-2H-quinazolin-3-yl}bicyclo[1.1.1]pentane-1-carboxylic acid]
